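The concentration for 50% growth inhibition is given as GI50. TGI marks complete inhibition of growth.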
Key:
Assay in all cases: NCI-60 cell line screen, 384-well format
SF-268 CNS = test system: SF-268 CNS
A498 renal = test system: A498 renal
MOLT-4 leukemia = test system: MOLT-4 leukemia
KM12 colon = test system: KM12 colon
NCI/ADR-RES ovarian = test system: NCI/ADR-RES ovarian
SF-539 CNS = test system: SF-539 CNS
SR leukemia = test system: SR leukemia
HOP-92 NSCLC = test system: HOP-92 NSCLC
OVCAR-3 ovarian = test system: OVCAR-3 ovarian
DU-145 prostate = test system: DU-145 prostate
NCI-H226 lung = test system: NCI-H226 lung
K-562 leukemia = test system: K-562 leukemia
SK-MEL-28 melanoma = test system: SK-MEL-28 melanoma
RXF 393 renal = test system: RXF 393 renal
A549 NSCLC = test system: A549 NSCLC
RPMI-8226 leukemia = test system: RPMI-8226 leukemia
SN12C renal = test system: SN12C renal
MCF7 breast = test system: MCF7 breast
NCI-H23 lung = test system: NCI-H23 lung
UO-31 renal = test system: UO-31 renal
HCC-2998 colon = test system: HCC-2998 colon
NCI-H522 lung = test system: NCI-H522 lung
SW-620 colon = test system: SW-620 colon
ACHN renal = test system: ACHN renal
NCI-H322M lung = test system: NCI-H322M lung
HOP-62 NSCLC = test system: HOP-62 NSCLC
MALME-3M melanoma = test system: MALME-3M melanoma
OVCAR-8 ovarian = test system: OVCAR-8 ovarian
HT29 colon = test system: HT29 colon
SK-MEL-2 melanoma = test system: SK-MEL-2 melanoma
COLO 205 colon = test system: COLO 205 colon
IGROV1 ovarian = test system: IGROV1 ovarian
MDA-MB-435 melanoma = test system: MDA-MB-435 melanoma
T-47D breast = test system: T-47D breast
U251 glioblastoma = test system: U251 glioblastoma
PC-3 prostate = test system: PC-3 prostate
MDA-MB-468 breast = test system: MDA-MB-468 breast
SNB-19 CNS = test system: SNB-19 CNS
OVCAR-5 ovarian = test system: OVCAR-5 ovarian
HL-60(TB) leukemia = test system: HL-60(TB) leukemia
UACC-257 melanoma = test system: UACC-257 melanoma
CCRF-CEM leukemia = test system: CCRF-CEM leukemia
SK-MEL-5 melanoma = test system: SK-MEL-5 melanoma
LOX IMVI melanoma = test system: LOX IMVI melanoma
CAKI-1 renal = test system: CAKI-1 renal
NCI-H460 NSCLC = test system: NCI-H460 NSCLC
M14 melanoma = test system: M14 melanoma
OVCAR-4 ovarian = test system: OVCAR-4 ovarian
UACC-62 melanoma = test system: UACC-62 melanoma
HCT-116 colon = test system: HCT-116 colon
786-0 renal = test system: 786-0 renal
HCT-15 colon = test system: HCT-15 colon
TK-10 renal = test system: TK-10 renal
BT-549 breast = test system: BT-549 breast

CN[C@@H](C)C(=O)N[C@H](C(=O)N1CCC[C@H]1C(=O)N[C@H]1c2ccccc2C[C@H]1OCC#CC#CCO[C@@H]1Cc2ccccc2[C@@H]1NC(=O)[C@@H]1CCCN1C(=O)[C@@H](NC(=O)[C@H](C)NC)C1CCCCC1)C1CCCCC1 showed a GI50 (SF-268 CNS) of 1670 nM, a TGI (SF-268 CNS) of 3040 nM and a GI50 (A498 renal) of 13500 nM. The TGI (A498 renal) was 26300 nM, the GI50 (MOLT-4 leukemia) was 1480 nM and the TGI (MOLT-4 leukemia) was 2800 nM. For the same compound, the GI50 (KM12 colon) was 1650 nM, the TGI (KM12 colon) was 3030 nM and the GI50 (NCI/ADR-RES ovarian) was 4650 nM. The TGI (NCI/ADR-RES ovarian) was 35500 nM, the GI50 (SF-539 CNS) was 1640 nM and the TGI (SF-539 CNS) was 3010 nM. For the same compound, the GI50 (SR leukemia) was 18.8 nM, the TGI (SR leukemia) was 1050 nM and the GI50 (HOP-92 NSCLC) was under 10 nM. The TGI (HOP-92 NSCLC) was 641 nM, the GI50 (OVCAR-3 ovarian) was 1320 nM and the TGI (OVCAR-3 ovarian) was 2640 nM. It also gave a GI50 (DU-145 prostate) of 1040 nM, a TGI (DU-145 prostate) of 2530 nM and a GI50 (NCI-H226 lung) of 6960 nM. The TGI (NCI-H226 lung) was 19800 nM, the GI50 (K-562 leukemia) was 2320 nM and the TGI (K-562 leukemia) was 6270 nM. It also gave a GI50 (SK-MEL-28 melanoma) of 1370 nM, a TGI (SK-MEL-28 melanoma) of 2670 nM and a GI50 (RXF 393 renal) of under 10 nM. The TGI (RXF 393 renal) was under 10 nM, the GI50 (A549 NSCLC) was 5330 nM and the TGI (A549 NSCLC) was 18600 nM. It also gave a GI50 (RPMI-8226 leukemia) of under 10 nM, a TGI (RPMI-8226 leukemia) of 1100 nM and a GI50 (SN12C renal) of 2140 nM. It also gave a TGI (SN12C renal) of 3610 nM, a GI50 (MCF7 breast) of 1330 nM and a TGI (MCF7 breast) of 2620 nM. The GI50 (NCI-H23 lung) was under 10 nM, the TGI (NCI-H23 lung) was 57.6 nM and the GI50 (UO-31 renal) was 19500 nM. The TGI (UO-31 renal) was 33700 nM, the GI50 (HCC-2998 colon) was 1620 nM and the TGI (HCC-2998 colon) was 2980 nM. For the same compound, the GI50 (NCI-H522 lung) was under 10 nM, the TGI (NCI-H522 lung) was 1020 nM and the GI50 (SW-620 colon) was 2160 nM. It also gave a TGI (SW-620 colon) of 4300 nM, a GI50 (ACHN renal) of 15300 nM and a TGI (ACHN renal) of 28600 nM. The GI50 (NCI-H322M lung) was 2250 nM, the TGI (NCI-H322M lung) was 5310 nM and the GI50 (HOP-62 NSCLC) was 34.9 nM. It also gave a TGI (HOP-62 NSCLC) of 441 nM, a GI50 (MALME-3M melanoma) of under 10 nM and a TGI (MALME-3M melanoma) of under 10 nM. For the same compound, the GI50 (OVCAR-8 ovarian) was 135 nM, the TGI (OVCAR-8 ovarian) was 2220 nM and the GI50 (HT29 colon) was 1660 nM. It also gave a TGI (HT29 colon) of 3100 nM, a GI50 (SK-MEL-2 melanoma) of under 10 nM and a TGI (SK-MEL-2 melanoma) of under 10 nM. For the same compound, the GI50 (COLO 205 colon) was 1370 nM, the TGI (COLO 205 colon) was 2660 nM and the GI50 (IGROV1 ovarian) was 1780 nM. The TGI (IGROV1 ovarian) was 3460 nM, the GI50 (MDA-MB-435 melanoma) was under 10 nM and the TGI (MDA-MB-435 melanoma) was 2030 nM. It also gave a GI50 (T-47D breast) of 1730 nM, a TGI (T-47D breast) of 3170 nM and a GI50 (U251 glioblastoma) of 1490 nM. For the same compound, the TGI (U251 glioblastoma) was 2820 nM, the GI50 (PC-3 prostate) was 1810 nM and the TGI (PC-3 prostate) was 3850 nM. It also gave a GI50 (MDA-MB-468 breast) of under 10 nM, a TGI (MDA-MB-468 breast) of under 10 nM and a GI50 (SNB-19 CNS) of 1560 nM. For the same compound, the TGI (SNB-19 CNS) was 2970 nM, the GI50 (OVCAR-5 ovarian) was 12300 nM and the TGI (OVCAR-5 ovarian) was 24800 nM. For the same compound, the GI50 (HL-60(TB) leukemia) was under 10 nM, the TGI (HL-60(TB) leukemia) was under 10 nM and the GI50 (UACC-257 melanoma) was 1520 nM. For the same compound, the TGI (UACC-257 melanoma) was 2850 nM, the GI50 (CCRF-CEM leukemia) was under 10 nM and the TGI (CCRF-CEM leukemia) was 1310 nM. The GI50 (SK-MEL-5 melanoma) was under 10 nM, the TGI (SK-MEL-5 melanoma) was 44.6 nM and the GI50 (LOX IMVI melanoma) was 2120 nM. For the same compound, the TGI (LOX IMVI melanoma) was 3560 nM, the GI50 (CAKI-1 renal) was 15100 nM and the TGI (CAKI-1 renal) was 28400 nM. It also gave a GI50 (NCI-H460 NSCLC) of 1770 nM, a TGI (NCI-H460 NSCLC) of 3190 nM and a GI50 (M14 melanoma) of 1900 nM. For the same compound, the TGI (M14 melanoma) was 3490 nM, the GI50 (OVCAR-4 ovarian) was under 10 nM and the TGI (OVCAR-4 ovarian) was under 10 nM. For the same compound, the GI50 (UACC-62 melanoma) was 1650 nM, the TGI (UACC-62 melanoma) was 3010 nM and the GI50 (HCT-116 colon) was 1670 nM. The TGI (HCT-116 colon) was 3120 nM, the GI50 ([…]-0 renal) was 2920 nM and the TGI (786-0 renal) was 11400 nM. The GI50 (HCT-15 colon) was 18000 nM, the TGI (HCT-15 colon) was 31900 nM and the GI50 (TK-10 renal) was 14000 nM. The TGI (TK-10 renal) was 27000 nM, the GI50 (BT-549 breast) was under 10 nM and the TGI (BT-549 breast) was 1920 nM.
